{"source": "paper PMC12454493", "about": "“Insight on novel sulfamoylphenyl pyrazole derivatives as anticancer carbonic anhydrase inhibitors” (Molecular Diversity, 2024)", "key": {"MALME-3M": {"tested_on": "MALME-3M", "assay": "NCI-60 one-dose SRB screen (Melanoma)", "format": "cell-based", "conditions": "Homo sapiens, single dose 10 µM, 48 h, read-out: Growth inhibition percent (GI %)", "description": "(§1) The National Cancer Institute (NCI) Developmental Therapeutic Program (www.dtp.nci.nih.gov) selected the 20 novel synthesized compounds 4a-e, 5a-e, 6a-c, 9a-e, 10 and 11 to test for their anticancer activity at a single dose of 10 µM using SRB assay. […] Supplementary Data S3; Table S1 presents the detailed screening results of the most promising compounds. The preliminary screening’s detailed results for the remaining compounds are elucidated in the (Supplementary Data S3; Table S2).\n(§2) The guidelines of the Drug Evaluation Branch’s protocol at the NCI in Bethesda served as the basis for the in vitro anticancer screening assays. at one dose 10 µM against a panel of 60 cancer cell lines. The human tumor cell lines used belonged to nine panels: leukemia, melanoma, lung, colon, CNS, ovarian, renal, prostate and breast cancers using the sulforhodamine B (SRB) assay in a 48 h drug exposure protocol."}, "MDA-MB-435": {"tested_on": "MDA-MB-435", "assay": "NCI-60 one-dose SRB screen (Melanoma)", "format": "cell-based", "conditions": "Homo sapiens, single dose 10 µM, 48 h, read-out: Growth inhibition percent (GI %)", "description": "as §1, §2"}, "SK-MEL-28": {"tested_on": "SK-MEL-28", "assay": "NCI-60 one-dose SRB screen (Melanoma)", "format": "cell-based", "conditions": "Homo sapiens, single dose 10 µM, 48 h, read-out: Growth inhibition percent (GI %)", "description": "as §1, §2"}, "SK-MEL-2": {"tested_on": "SK-MEL-2", "assay": "NCI-60 one-dose SRB screen (Melanoma)", "format": "cell-based", "conditions": "Homo sapiens, single dose 10 µM, 48 h, read-out: Growth inhibition percent (GI %)", "description": "as §1, §2"}, "SK-MEL-5": {"tested_on": "SK-MEL-5", "assay": "NCI-60 one-dose SRB screen (Melanoma)", "format": "cell-based", "conditions": "Homo sapiens, single dose 10 µM, 48 h, read-out: Growth inhibition percent (GI %)", "description": "as §1, §2"}, "UACC-257": {"tested_on": "UACC-257", "assay": "NCI-60 one-dose SRB screen (Melanoma)", "format": "cell-based", "conditions": "Homo sapiens, single dose 10 µM, 48 h, read-out: Growth inhibition percent (GI %)", "description": "as §1, §2"}, "UACC-62": {"tested_on": "UACC-62", "assay": "NCI-60 one-dose SRB screen (Melanoma)", "format": "cell-based", "conditions": "Homo sapiens, single dose 10 µM, 48 h, read-out: Growth inhibition percent (GI %)", "description": "as §1, §2"}, "IGROV1": {"tested_on": "IGROV1", "assay": "NCI-60 one-dose SRB screen (Ovarian cancer)", "format": "cell-based", "conditions": "Homo sapiens, IGROV-1, single dose 10 µM, 48 h, read-out: Growth inhibition percent (GI %)", "description": "as §1, §2"}, "NCI/ADR-RES": {"tested_on": "NCI/ADR-RES", "assay": "NCI-60 one-dose SRB screen (Ovarian cancer)", "format": "cell-based", "conditions": "Homo sapiens, single dose 10 µM, 48 h, read-out: Growth inhibition percent (GI %)", "description": "as §1, §2"}, "OVCAR-3": {"tested_on": "OVCAR-3", "assay": "NCI-60 one-dose SRB screen (Ovarian cancer)", "format": "cell-based", "conditions": "Homo sapiens, single dose 10 µM, 48 h, read-out: Growth inhibition percent (GI %)", "description": "as §1, §2"}, "OVCAR-4": {"tested_on": "OVCAR-4", "assay": "NCI-60 one-dose SRB screen (Ovarian cancer)", "format": "cell-based", "conditions": "Homo sapiens, single dose 10 µM, 48 h, read-out: Growth inhibition percent (GI %)", "description": "as §1, §2"}, "OVCAR-5": {"tested_on": "OVCAR-5", "assay": "NCI-60 one-dose SRB screen (Ovarian cancer)", "format": "cell-based", "conditions": "Homo sapiens, single dose 10 µM, 48 h, read-out: Growth inhibition percent (GI %)", "description": "as §1, §2"}, "OVCAR-8": {"tested_on": "OVCAR-8", "assay": "NCI-60 one-dose SRB screen (Ovarian cancer)", "format": "cell-based", "conditions": "Homo sapiens, single dose 10 µM, 48 h, read-out: Growth inhibition percent (GI %)", "description": "as §1, §2"}, "SK-OV-3": {"tested_on": "SK-OV-3", "assay": "NCI-60 one-dose SRB screen (Ovarian cancer)", "format": "cell-based", "conditions": "Homo sapiens, single dose 10 µM, 48 h, read-out: Growth inhibition percent (GI %)", "description": "as §1, §2"}, "786-0": {"tested_on": "786-0", "assay": "NCI-60 one-dose SRB screen (Renal Cancer)", "format": "cell-based", "conditions": "Homo sapiens, single dose 10 µM, 48 h, read-out: Growth inhibition percent (GI %)", "description": "as §1, §2"}, "A498": {"tested_on": "A498", "assay": "NCI-60 one-dose SRB screen (Renal Cancer)", "format": "cell-based", "conditions": "Homo sapiens, single dose 10 µM, 48 h, read-out: Growth inhibition percent (GI %)", "description": "as §1, §2"}, "ACHN": {"tested_on": "ACHN", "assay": "NCI-60 one-dose SRB screen (Renal Cancer)", "format": "cell-based", "conditions": "Homo sapiens, single dose 10 µM, 48 h, read-out: Growth inhibition percent (GI %)", "description": "as §1, §2"}, "CAKI-1": {"tested_on": "CAKI-1", "assay": "NCI-60 one-dose SRB screen (Renal Cancer)", "format": "cell-based", "conditions": "Homo sapiens, single dose 10 µM, 48 h, read-out: Growth inhibition percent (GI %)", "description": "as §1, §2"}, "RXF 393": {"tested_on": "RXF 393", "assay": "NCI-60 one-dose SRB screen (Renal Cancer)", "format": "cell-based", "conditions": "Homo sapiens, single dose 10 µM, 48 h, read-out: Growth inhibition percent (GI %)", "description": "as §1, §2"}, "TK-10": {"tested_on": "TK-10", "assay": "NCI-60 one-dose SRB screen (Renal Cancer)", "format": "cell-based", "conditions": "Homo sapiens, single dose 10 µM, 48 h, read-out: Growth inhibition percent (GI %)", "description": "as §1, §2"}, "UO-31": {"tested_on": "UO-31", "assay": "NCI-60 one-dose SRB screen (Renal Cancer)", "format": "cell-based", "conditions": "Homo sapiens, single dose 10 µM, 48 h, read-out: Growth inhibition percent (GI %)", "description": "as §1, §2"}, "DU-145": {"tested_on": "DU-145", "assay": "NCI-60 one-dose SRB screen (Prostate Cancer)", "format": "cell-based", "conditions": "Homo sapiens, single dose 10 µM, 48 h, read-out: Growth inhibition percent (GI %)", "description": "as §1, §2"}, "PC-3": {"tested_on": "PC-3", "assay": "NCI-60 one-dose SRB screen (Prostate Cancer)", "format": "cell-based", "conditions": "Homo sapiens, single dose 10 µM, 48 h, read-out: Growth inhibition percent (GI %)", "description": "as §1, §2"}, "BT-549": {"tested_on": "BT-549", "assay": "NCI-60 one-dose SRB screen (Breast Cancer)", "format": "cell-based", "conditions": "Homo sapiens, single dose 10 µM, 48 h, read-out: Growth inhibition percent (GI %)", "description": "as §1, §2"}, "HS 578T": {"tested_on": "HS 578T", "assay": "NCI-60 one-dose SRB screen (Breast Cancer)", "format": "cell-based", "conditions": "Homo sapiens, single dose 10 µM, 48 h, read-out: Growth inhibition percent (GI %)", "description": "as §1, §2"}, "MCF-7": {"tested_on": "MCF-7", "assay": "NCI-60 one-dose SRB screen (Breast Cancer)", "format": "cell-based", "conditions": "Homo sapiens, MCF7, single dose 10 µM, 48 h, read-out: Growth inhibition percent (GI %)", "description": "as §1, §2"}, "MDA-MB-231/ATCC": {"tested_on": "MDA-MB-231/ATCC", "assay": "NCI-60 one-dose SRB screen (Breast Cancer)", "format": "cell-based", "conditions": "Homo sapiens, single dose 10 µM, 48 h, read-out: Growth inhibition percent (GI %)", "description": "as §1, §2"}, "MDA-MB-468": {"tested_on": "MDA-MB-468", "assay": "NCI-60 one-dose SRB screen (Breast Cancer)", "format": "cell-based", "conditions": "Homo sapiens, single dose 10 µM, 48 h, read-out: Growth inhibition percent (GI %)", "description": "as §1, §2"}, "T-47D": {"tested_on": "T-47D", "assay": "NCI-60 one-dose SRB screen (Breast Cancer)", "format": "cell-based", "conditions": "Homo sapiens, T47D, single dose 10 µM, 48 h, read-out: Growth inhibition percent (GI %)", "description": "as §1, §2"}, "hCA XII": {"target": "hCA XII (Homo sapiens, UniProt O43570)", "sequence (O43570 25-354)": "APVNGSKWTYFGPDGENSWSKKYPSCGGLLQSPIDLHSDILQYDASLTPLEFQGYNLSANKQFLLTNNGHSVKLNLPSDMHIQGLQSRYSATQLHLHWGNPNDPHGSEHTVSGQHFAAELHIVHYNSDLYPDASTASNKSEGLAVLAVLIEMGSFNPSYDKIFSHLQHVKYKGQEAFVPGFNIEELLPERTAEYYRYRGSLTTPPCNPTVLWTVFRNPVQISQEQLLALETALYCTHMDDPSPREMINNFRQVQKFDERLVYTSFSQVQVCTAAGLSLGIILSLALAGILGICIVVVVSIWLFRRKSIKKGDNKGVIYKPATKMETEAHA", "assay": "CA inhibitory activity, spectrophotometric p-NPA assay", "format": "biochemical", "conditions": "p-NPA substrate, pH 7.5, 25 °C, triplicate; read-out: IC50 (µM) ± SD hCA XII"}}}
{"smiles": "COc1ccc(-c2nn(-c3ccc(S(N)(=O)=O)cc3)cc2C(=O)NNC(N)=S)cc1", "note": "[Compound 9c, 2-[3-(4-Methoxyphenyl)-1-(4-sulfamoylphenyl)-1H-pyrazole-4-carbonyl] hydrazine-1-carbothioamide]", "values": [{"measurement": "inhibition at 10 µM", "setting": "MALME-3M", "value": "< 5", "unit": "%"}, {"measurement": "inhibition at 10 µM", "setting": "MDA-MB-435", "value": "< 5", "unit": "%"}, {"measurement": "inhibition at 10 µM", "setting": "SK-MEL-28", "value": "< 5", "unit": "%"}, {"measurement": "inhibition at 10 µM", "setting": "SK-MEL-2", "value": "< 5", "unit": "%"}, {"measurement": "inhibition at 10 µM", "setting": "SK-MEL-5", "value": "< 5", "unit": "%"}, {"measurement": "inhibition at 10 µM", "setting": "UACC-257", "value": "< 5", "unit": "%"}, {"measurement": "inhibition at 10 µM", "setting": "UACC-62", "value": 8.41, "unit": "%"}, {"measurement": "inhibition at 10 µM", "setting": "IGROV1", "value": "< 5", "unit": "%"}, {"measurement": "inhibition at 10 µM", "setting": "NCI/ADR-RES", "value": "< 5", "unit": "%"}, {"measurement": "inhibition at 10 µM", "setting": "OVCAR-3", "value": "< 5", "unit": "%"}, {"measurement": "inhibition at 10 µM", "setting": "OVCAR-4", "value": "< 5", "unit": "%"}, {"measurement": "inhibition at 10 µM", "setting": "OVCAR-5", "value": "< 5", "unit": "%"}, {"measurement": "inhibition at 10 µM", "setting": "OVCAR-8", "value": "< 5", "unit": "%"}, {"measurement": "inhibition at 10 µM", "setting": "SK-OV-3", "value": "< 5", "unit": "%"}, {"measurement": "inhibition at 10 µM", "setting": "786-0", "value": "< 5", "unit": "%"}, {"measurement": "inhibition at 10 µM", "setting": "A498", "value": "< 5", "unit": "%"}, {"measurement": "inhibition at 10 µM", "setting": "ACHN", "value": "< 5", "unit": "%"}, {"measurement": "inhibition at 10 µM", "setting": "CAKI-1", "value": "< 5", "unit": "%"}, {"measurement": "inhibition at 10 µM", "setting": "RXF 393", "value": "< 5", "unit": "%"}, {"measurement": "inhibition at 10 µM", "setting": "TK-10", "value": "< 5", "unit": "%"}, {"measurement": "inhibition at 10 µM", "setting": "UO-31", "value": "< 5", "unit": "%"}, {"measurement": "inhibition at 10 µM", "setting": "DU-145", "value": "< 5", "unit": "%"}, {"measurement": "inhibition at 10 µM", "setting": "PC-3", "value": "< 5", "unit": "%"}, {"measurement": "inhibition at 10 µM", "setting": "BT-549", "value": "< 5", "unit": "%"}, {"measurement": "inhibition at 10 µM", "setting": "HS 578T", "value": "< 5", "unit": "%"}, {"measurement": "inhibition at 10 µM", "setting": "MCF-7", "value": "< 5", "unit": "%"}, {"measurement": "inhibition at 10 µM", "setting": "MDA-MB-231/ATCC", "value": "< 5", "unit": "%"}, {"measurement": "inhibition at 10 µM", "setting": "MDA-MB-468", "value": "< 5", "unit": "%"}, {"measurement": "inhibition at 10 µM", "setting": "T-47D", "value": "< 5", "unit": "%"}, {"measurement": "IC50", "setting": "hCA XII", "value": "0.168 ± 0.006", "unit": "µM"}, {"measurement": "melting point", "value": "205 to 207", "unit": "°C"}]}
